“Also recorded” adds a separate entry of the source.
What was measured:
HL-60 Bcl-2 cells = assay: DNA fragmentation (release of 3H-labeled DNA fragments) in Bcl-2-transfected HL-60 cells; type: cell-based, human
Ramos B lymphoma cells = assay: Dox cytotoxicity by trypan blue exclusion in Ramos cells; type: cell-based; settings: 24 hr
Procedure: In the present study, the sensitizing activity of W-188 and W-143 was tested in the Raji and Ramos cell lines. Since these two human B lymphoma lines naturally express high levels of anti-apoptotic Bcl-2 proteins, they may be more clinically relevant than the transfected HL-60-Bcl-2 line.
The sensitizing effects of W-143 and W-188 were first tested on these lines in vitro. […] Ramos cells were cultured with different concentrations of Dox with and without W-143 or W-188 at 20 μg/ml for 24 hr, and then viability assessed microscopically by counting at least 100 cells.

mice [1] = assay: Acute single dose toxicity; type: in vivo; settings: 1000 mg/kg single dose
Procedure: The present study assessed the acute single-dose toxicity of W-188 and W-143.
Solutions of W-188 were dissolved in DMSO and injected i.p. in groups of three mice each as well as vehicle control at 500 mg/kg.
Since W-143 is water-soluble, higher doses could be tested.
Therefore, the MTD (maximum tolerated dose) for a single dose of either compound is estimated to be 500 mg/kg.

mice [2] = assay: Multiple dose toxicity with histopathological analysis; type: in vivo
Procedure: In the present study, more extensive toxicity studies with histopathological analysis of seven different tissues was performed on W-143 at a commercial lab.
Groups of six mice (3 male and 3 females) each were given three i.p. injections at two day intervals of vehicle, doxorubicin 5 mg/kg alone, W-143 200 mg/kg alone or both together. On day 5 and day 15 after the last injection, mice were sacrificed, necropsied, and tissue samples processed. Tissues examined include bone marrow, liver, heart, small and large intestine, 1 sex organ, and kidney.

RIF-1 fibrosarcoma = RIF-1 fibrosarcoma tumor growth in vivo; parameters: species or system mice; settings: for Inhibition of tumor growth compared to vehicle control: day 15
Source text: The present study tested in the ability of W-188 to synergize with Dox and inhibit tumor growth in vivo. The RIF-1 fibrosarcoma model was used because this model has been well-characterized, and naturally expresses high Bcl-2 levels and has a consistent growth pattern (Nahabedian, M. Y., et al., J. Natl. Can. Inst., 1988, 80:739; Chang, M-J., et al., Cancer Res., 1994, 54:5380; Srivastana, M., et al., J. Biol. Chem., 2001, 276:15481).
Groups of five mice each were inoculated s.c. with RIF-1 cells. The tumors were allowed to grow for 12 days to a size of 0.5 cm diameter, which was designated day 0. The mice were then given five i.p. injections every other day with vehicle, Dox 2.5 mg/kg, Dox 5.0 mg/kg, W-188 100 mg/kg, and Dox 5.0 mg/kg+W-188 100 mg/kg. The mice were weighed and the tumor size measured every day.
The protocol was similar to that described for the W-188 experiment in Example 8, except that in this study, mice with established tumors received only three injections of W-143 or Dox every other day starting on day 0.

Bcl-2 = assay: Western blot for expression of Bcl-2 in RIF-1 tumors in vivo; parameters: species or system mice; settings: day 15
Source text: Cells were dissociated, lysed, and the nuclei and mitochondria separated by differential centrifugation. RIF-1 cells cultured in vitro were processed in a similar manner as a positive control. Equal amounts of protein extracts were separated by electrophoresis and analyzed by Western blot for expression of Bcl-2. […] The pattern of Bcl-2 expression was similar in the nuclei, although the overall levels were lower than in the mitochondria. […] Most likely, this discrepancy can be explained by the fact that this line is transfected with exogenous Bcl-2, whereas the RIF-1 line expresses endogenous Bcl-2 under control of its natural promoter. […] Alternatively, W-188 and W-143 may differ in their mechanisms of action, although this conclusion seems less likely in view of the structural similarity of these two compounds.

Water solubility = type: physicochemical
[3] = Body weight of RIF-1 tumor bearing mice
Source text: Groups of five mice each were inoculated s.c. with RIF-1 cells. The tumors were allowed to grow for 12 days to a size of 0.5 cm diameter, which was designated day 0. […] The mice were weighed and the tumor size measured every day.

[4] = W-143 100 mg/kg alone, data not shown

## CCC1=C(C)C(=O)NC1C (centres unmarked) [W-143, 3,5-dimethyl-4-ethyl-2-oxo-2,5-dihydropyrrole]
HL-60 Bcl-2 cells
  Sensitization to etoposide-induced apoptosis: sensitize 1L-60-Bcl-2 cells to etoposide-induced apoptosis
HL-60 Bcl-2 cells; Exp 5, etoposide 10 μM + compound 10 μM
  % DNA Fragmentation: 34%
Ramos B lymphoma cells; 20 μg/ml, no Dox
  Toxicity of compound alone: completely nontoxic
Ramos B lymphoma cells; compound 20 μg/ml + Dox, FIG. 6
  Increase of cytotoxicity mediated by Dox: over two fold
Mice [1]
  Deaths: All three mice injected with 1000 mg/kg of W-143 died within 24 h
Mice [2]; W-143 200 mg/kg alone, three i.p. injections at two day intervals, day 5
  Histopathology: minor vacuolar changes in the liver
Mice [2]; W-143 200 mg/kg alone, day 15
  Histopathology: all tissues were normal
Mice [2]; doxorubicin 5 mg/kg + W-143 200 mg/kg, three i.p. injections, day 5
  Histopathology: minor vacuolar changes in the liver
Mice [2]; doxorubicin 5 mg/kg + W-143 200 mg/kg, day 15
  Histopathology: all tissues were normal
RIF-1 fibrosarcoma; Dox + W-143 100 mg/kg, p=0.005
  Inhibition of tumor growth compared to vehicle control: 70%
RIF-1 fibrosarcoma; Dox + W-143 200 mg/kg, p=0.001
  Inhibition of tumor growth compared to vehicle control: 83%
RIF-1 fibrosarcoma; [4]
  Effect on tumor growth: did not decrease tumor growth
RIF-1 fibrosarcoma; W-143 200 mg/kg alone, three injections, FIG. 14
  Effect on tumor growth: only a small effect on tumor growth
RIF-1 fibrosarcoma; W-143 + Dox combined
  Effect on tumor growth: synergistically inhibited tumor growth
Bcl-2; Dox + W-143, FIG. 16 lane 10
  Bcl-2 expression in tumor cell mitochondria: no detectable Bcl-2
Bcl-2; W-143 alone, FIG. 16
  Bcl-2 expression in tumor cell mitochondria: expressed high levels of Bcl-2
Water solubility
  Water solubility: water soluble; also recorded: water-soluble
[3]; Dox + W-143 100 mg/kg, any time point
  Body weight: did not show any greater weight loss
[3]; Dox + W-143 200 mg/kg, day 13
  Body weight: weighed just as much as mice treated with Dox alone on day 13
[3]; [4]
  Body weight: weighed similar to the vehicle control mice

Reference: US20030207933A1, “Compositions and methods for increasing the sensitivity of apoptosis-resistant tumor cells to inducers of apoptosis” (priority 2002, published 2003)
